# Assay results published in patent US4472582A, “3,5-Disubstituted-4'-(9-acridinylamino)-methane-sulfon-m-anisidide compounds having antitumor properties” (Development Finance Corporation of New Zealand, priority 1979, dated 1984).
# Tested on: L1210 leukemia
# Test: not given
# Conditions: in words, literature; cited from earlier work
row,SMILES,Antitumour activity in L1210 leukemia
1,"CS(=O)(=O)Nc1ccc(Nc2c3ccccc3nc3ccccc23)cc1 [AMSA, 4'-(9-acridinylamino) methanesulfonanilide]",high antitumour activity
2,"COc1cc(NS(C)(=O)=O)ccc1Nc1c2ccccc2nc2ccccc12 [m-AMSA, 4'-(9-acridinylamino)-methanesulfon-m-anisidide]",highly effective in treating L1210 leukemia

# Tested on: L1210 leukemia (ip)
# Test: Antileukemic screen, L1210 tumour ip, drug ip qd 1-5
# Type: in vivo, mice (C3H/DBA2 F1 hybrids)
# Design: LD10 / D40 (drug dose necessary to provide 40% ILS): unit not given here
# Conditions: L1210-ip, qd 1-5; Table III
# Text: (§1) In initial screening a standard drug administration schedule has been employed (ip, qd 1-5) and mice (C3 H/DBA2 F1 hybrids) bred in the laboratory, receive a standard tumor inoculum of 10^5 L1210 cells ip on day 0. After range finding experiments, an LD10 dose has then been derived employing doses separated by 0.05 log.dose units, an acceptable soluble drug formulation (B. F. Cain, R. N. Seelye and G. J. Atwell, J. Med. Chem., 17, 922-930 (1974)) and groups of six tumored mice at each dose level. Deaths occuring before day 8 have been taken as resulting from drug toxicity. From the linear regression relating percent probit-mortality and the logarithms of the corresponding doses, an LD10 value has been derived. Profiles of antileukemic activity have been obtained employing doses separated by 0.09 log.dose intervals. Significant percentage increases in life span of leukemic animals, obtained at and below the LD10 dose, have been linearly correlated with the logarithms of the corresponding doses. The increase in life span (ILS) specified by the life extension-log.dose regression line at the measured LD10 provides a representative measure of antileukemic effectiveness at a standard host load in toxicity (W. A. Denny and B. F. Cain, J. Med. Chem., 21, 430-437 (1978)). For congener selection ILS has been employed as a measure of factor (1) above and LD10 for factor (2). Desirable drug pharmacokinetic properties (factor (3)) have been screened for by employing standard ip drug administration and implanting tumor more remotely; either subcutaneously (sc) or intracerabrally (ic) (B. F. Cain and G. J. Atwell Europ J. Cancer, 10, 539 549 (1974), B. F. Cain and G. J. Atwell, J. Med. Chem., 19 1409-1416 (1976)).
# (§2) ILS and LD10=as defined above.
# (§3) D40=the drug dose necessary to provide 40% ILS in standard L1210 assays.
row,SMILES,ILS Observed
1,CNC(=O)c1cccc2c(Nc3ccc(NS(C)(=O)=O)cc3OC)c3ccc(C)cc3nc12 [Compound 1],200%

# Same assay, conditions: Tumour L1210-ip, Strain F1, Schedule qd 1-5, at LD10; Table II
row,SMILES,ILS (increase in life span at the LD10)
1,CNC(=O)c1cccc2c(Nc3ccc(NS(C)(=O)=O)cc3OC)c3ccc(C)cc3nc12 [Compound 1],200%
2,"COc1cc(NS(C)(=O)=O)ccc1Nc1c2ccccc2nc2ccccc12 [m-AMSA, 4'-(9-acridinylamino)-methanesulfon-m-anisidide]",111%

# Same assay, conditions: Tumour L1210-ip, Strain F1, Schedule qd 1-5, drug ip; Table II
row,SMILES,LD10
1,CNC(=O)c1cccc2c(Nc3ccc(NS(C)(=O)=O)cc3OC)c3ccc(C)cc3nc12 [Compound 1],12
2,"COc1cc(NS(C)(=O)=O)ccc1Nc1c2ccccc2nc2ccccc12 [m-AMSA, 4'-(9-acridinylamino)-methanesulfon-m-anisidide]",9

# Same assay, conditions: Tumour L1210-ip, Strain F1, Schedule qd 1-5; Table II
row,SMILES,D40 (drug dose necessary to provide 40% ILS)
1,CNC(=O)c1cccc2c(Nc3ccc(NS(C)(=O)=O)cc3OC)c3ccc(C)cc3nc12 [Compound 1],3
2,"COc1cc(NS(C)(=O)=O)ccc1Nc1c2ccccc2nc2ccccc12 [m-AMSA, 4'-(9-acridinylamino)-methanesulfon-m-anisidide]",2.5

# Same assay, conditions: in words
SMILES,Antitumour activity in leukemic animals,Dose potency
CNC(=O)c1cccc2c(Nc3ccc(NS(C)(=O)=O)cc3OC)c3ccc(C)cc3nc12 [Compound 1],unusually high antitumour activity in leukemic animals,good dose potency

# Same assay, conditions: in words; listed as 3-methyl-5-methylcarboxamido
row,SMILES,Antitumour activity in leukemic animals
1,CNC(=O)c1cccc2c(Nc3ccc(NS(C)(=O)=O)cc3OC)c3ccc(C)cc3nc12 [Compound 1],high experimental antitumor activity

# Tested on: Ames bacterial tester strains TA98, TA100, TA1537
# Test: not given
# Type: cell-based
# Conditions: not given
# Text: As clinical cancer chemotherapy improves, and patients live symptom free for longer intervals, it is obviously important that the agents employed are not carcinogenic and capable of disease re-induction.
row,SMILES,Direct mutagenicity
1,CNC(=O)c1cccc2c(Nc3ccc(NS(C)(=O)=O)cc3OC)c3ccc(C)cc3nc12 [Compound 1],lack significant mutagenic activity

# Tested on: poly.dAT
# Test: Drug-DNA binding, poly.dAT (AT)
# Conditions: not given
# Text: (§4) CT, AT and GC=are relative, inverse measures of compound--DNA binding for calf thymus DNA (CT); poly.dAT (AT) and poly. dGC (GC). (B. C. Baguley and E. M. Falkenhaugh, Nucleic Acids Res., 5, 161-171 (1978), B. F. Cain, B. C. Baguley and W. A. Denny, J. Med. Chem., 21, 658-668 (1978)).
row,SMILES,"AT (relative, inverse measure of compound-DNA binding)"
1,CNC(=O)c1cccc2c(Nc3ccc(NS(C)(=O)=O)cc3OC)c3ccc(C)cc3nc12 [Compound 1],4.74

# Tested on: experimental tumour systems
# Test: not given
# Conditions: in words, literature; cited from earlier work
row,SMILES,Activity in other experimental tumour systems
1,"COc1cc(NS(C)(=O)=O)ccc1Nc1c2ccccc2nc2ccccc12 [m-AMSA, 4'-(9-acridinylamino)-methanesulfon-m-anisidide]",has shown promise in a number of other experimental tumour systems

# Tested on: not listed separately
# Test: Lipophilic-hydrophilic balance by reversed phase chromatography
# Type: physicochemical
# Conditions: linearly related to 1-octanol/H2O partition coefficients
# Text: Rm =a measure of the compound's lipophilichydrophilic balance from reversed phase chromatography. Rm is linearly related to partition coefficients obtained in the 1-octanol/H2 O system.
row,SMILES,Rm (reversed-phase chromatographic lipophilicity)
1,CNC(=O)c1cccc2c(Nc3ccc(NS(C)(=O)=O)cc3OC)c3ccc(C)cc3nc12 [Compound 1],0.32

# Tested on: TA1537 strain of Salmonella typhimurium
# Test: Mutagenicity assay in TA1537 strain
# Conditions: Salmonella typhimurium TA1537
# Text: The quantitative measures of mutagenicity employed in the present studies are those detailed in L. R. Ferguson and W. A. Denny, J. Med. Chem., 22, 251-255 (1979) of early QSAR developed in this area.
# D50 and M50=quantitative measures derived from mutagenicity assays in TA1537 strain of Salmonella typhimurium, defined in L. R. Ferguson and W. A. Denny, J. Med. Chem., 22, 251-255 (1979). (The values of M50 are percentage mutation frequencies at the D50 (×10^4).)
row,SMILES,Mutagenicity D50
1,CNC(=O)c1cccc2c(Nc3ccc(NS(C)(=O)=O)cc3OC)c3ccc(C)cc3nc12 [Compound 1],15.3

# Same assay, conditions: Salmonella typhimurium TA1537, at the D50
row,SMILES,Mutagenicity M50 (percentage mutation frequency at the D50 (×10^4))
1,CNC(=O)c1cccc2c(Nc3ccc(NS(C)(=O)=O)cc3OC)c3ccc(C)cc3nc12 [Compound 1],1.0 % (×10^4)

# Tested on: not listed separately
# Test: Basic pKa measured spectrophotometrically
# Type: physicochemical
# Conditions: 20% aqueous dimethylformamide, spectrophotometric; read-out: pK (basic pKa)
row,SMILES,pKa
1,CNC(=O)c1cccc2c(Nc3ccc(NS(C)(=O)=O)cc3OC)c3ccc(C)cc3nc12 [Compound 1],6.6

# Tested on: calf thymus DNA
# Test: Drug-DNA binding, calf thymus DNA (CT)
# Conditions: not given
# Text: as §4
row,SMILES,"CT (relative, inverse measure of compound-DNA binding)"
1,CNC(=O)c1cccc2c(Nc3ccc(NS(C)(=O)=O)cc3OC)c3ccc(C)cc3nc12 [Compound 1],5.53

# Tested on: L1210 leukemia (sc)
# Test: Antileukemic screen, L1210 tumour sc, drug ip qd 1-5
# Type: in vivo, mice (C3H/DBA2 F1 hybrids)
# Design: LD10 / D40 (drug dose necessary to provide 40% ILS): unit not given here
# Conditions: Strain F1, Schedule qd 1-5, Table II
# Text: as §1, §2, §3
row,SMILES,D40 (drug dose necessary to provide 40% ILS)
1,"COc1cc(NS(C)(=O)=O)ccc1Nc1c2ccccc2nc2ccccc12 [m-AMSA, 4'-(9-acridinylamino)-methanesulfon-m-anisidide]",8.0

# Same assay, conditions: Strain F1, Schedule qd 1-5, at LD10, Table II
row,SMILES,ILS (increase in life span at the LD10)
1,CNC(=O)c1cccc2c(Nc3ccc(NS(C)(=O)=O)cc3OC)c3ccc(C)cc3nc12 [Compound 1],30%
2,"COc1cc(NS(C)(=O)=O)ccc1Nc1c2ccccc2nc2ccccc12 [m-AMSA, 4'-(9-acridinylamino)-methanesulfon-m-anisidide]",45%

# Same assay, conditions: Strain F1, Schedule qd 1-5, drug ip, Table II
row,SMILES,LD10
1,CNC(=O)c1cccc2c(Nc3ccc(NS(C)(=O)=O)cc3OC)c3ccc(C)cc3nc12 [Compound 1],10
2,"COc1cc(NS(C)(=O)=O)ccc1Nc1c2ccccc2nc2ccccc12 [m-AMSA, 4'-(9-acridinylamino)-methanesulfon-m-anisidide]",10

# Tested on: poly. dGC
# Test: Drug-DNA binding, poly.dGC (GC)
# Conditions: not given
# Text: as §4
row,SMILES,"GC (relative, inverse measure of compound-DNA binding)"
1,CNC(=O)c1cccc2c(Nc3ccc(NS(C)(=O)=O)cc3OC)c3ccc(C)cc3nc12 [Compound 1],2.76

# Tested on: L1210 leukemia (ic)
# Test: Intracerebrally implanted L1210
# Type: in vivo, mice
# Conditions: in words
# Text: as §1
row,SMILES,Inhibition of intra-cerebrally implanted L1210
1,CNC(=O)c1cccc2c(Nc3ccc(NS(C)(=O)=O)cc3OC)c3ccc(C)cc3nc12 [Compound 1],inhibit intra-cerebrally implanted L1210
2,"COc1cc(NS(C)(=O)=O)ccc1Nc1c2ccccc2nc2ccccc12 [m-AMSA, 4'-(9-acridinylamino)-methanesulfon-m-anisidide]",does not

# Tested on: not listed separately
# Test: Water solubility / ease of formulation
# Type: physicochemical
# Conditions: in words
row,SMILES,Ease of formulation
1,CNC(=O)c1cccc2c(Nc3ccc(NS(C)(=O)=O)cc3OC)c3ccc(C)cc3nc12 [Compound 1],easily formulable
